Reference: ChEMBL document CHEMBL1909046, “DrugMatrix in vitro pharmacology data”

Legend:
[1] = biological target: Beta-1 adrenergic receptor (Homo sapiens, UniProt P08588); experiment: DRUGMATRIX: Adrenergic beta1 radioligand binding (ligand: [125I] Cyanopindolol); format: cell membranes, CHO-K1, Membrane; details: cho-k1; Not Active = under 50% inhibition at 10 µM
[2] = DRUGMATRIX: beta-Lactamase enzyme inhibition (substrate: Nitrocefin); parameters: species or system Bacillus cereus; details: Not Active = under 50% inhibition at 10 µM
[3] = DRUGMATRIX: Calcium Channel Type L, Dihydropyridine radioligand binding (ligand: [3H] Nitrendipine); format: cell membranes, Rattus norvegicus, Wistar, Cerebral cortex, Membrane; details: Not Active = under 50% inhibition at 10 µM
[4] = biological target: T1, Vasoactive intestinal polypeptide receptor 1 (Homo sapiens, UniProt P32241); format: cell membranes, Membrane; details: ht-29; also: in other assays of this panel Not Active means under 50% inhibition at 10 µM
T1 sequence (P32241 whole entry): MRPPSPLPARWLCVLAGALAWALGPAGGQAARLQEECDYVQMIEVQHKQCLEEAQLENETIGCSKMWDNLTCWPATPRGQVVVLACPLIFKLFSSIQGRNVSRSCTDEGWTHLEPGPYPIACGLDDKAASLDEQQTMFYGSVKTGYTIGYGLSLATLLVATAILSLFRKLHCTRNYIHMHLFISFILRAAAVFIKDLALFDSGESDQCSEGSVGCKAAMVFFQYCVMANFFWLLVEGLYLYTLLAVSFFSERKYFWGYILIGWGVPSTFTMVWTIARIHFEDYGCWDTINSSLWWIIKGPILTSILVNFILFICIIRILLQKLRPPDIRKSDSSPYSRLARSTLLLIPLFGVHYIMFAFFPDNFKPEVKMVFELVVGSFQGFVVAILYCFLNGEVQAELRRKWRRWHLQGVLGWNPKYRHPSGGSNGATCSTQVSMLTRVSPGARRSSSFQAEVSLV

[5] = biological target: T2, C-C chemokine receptor type 4 (Homo sapiens, UniProt P51679); format: cell membranes, Membrane; details: chem-1; also: in other assays of this panel Not Active means under 50% inhibition at 10 µM
T2 sequence (P51679 whole entry): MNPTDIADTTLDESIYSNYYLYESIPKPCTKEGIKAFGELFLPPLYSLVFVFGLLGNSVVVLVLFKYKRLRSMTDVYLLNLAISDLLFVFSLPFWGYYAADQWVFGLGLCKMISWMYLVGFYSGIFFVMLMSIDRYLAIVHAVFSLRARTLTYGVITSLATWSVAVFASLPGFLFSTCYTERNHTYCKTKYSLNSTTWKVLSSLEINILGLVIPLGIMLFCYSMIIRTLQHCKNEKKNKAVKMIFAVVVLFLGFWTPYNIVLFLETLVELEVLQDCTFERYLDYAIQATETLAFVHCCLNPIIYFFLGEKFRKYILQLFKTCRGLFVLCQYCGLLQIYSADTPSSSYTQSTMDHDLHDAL

[6] = biological target: Prostaglandin G/H synthase 1 (Homo sapiens, UniProt P23219); experiment: biochemical; format: tissue-based, Platelet; details: platelet;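 also: inhibition of COX-1 enzyme activity, with arachidonic acid supplied as substrate; in other assays of this panel Not Active means under 50% inhibition at 10 µM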
[7] = DRUGMATRIX: Interleukin IL-1 radioligand binding (ligand: [125I] interleukin 1beta); format: cell membranes, Membrane; details: nih3t3; Not Active = under 50% inhibition at 10 µM
[8] = DRUGMATRIX: Leukotriene, BLT (LTB4) radioligand binding (ligand: [3H]LTB4); format: cell membranes, Membrane; details: u-937; Not Active = under 50% inhibition at 10 µM
Melanocortin receptor 3 = Melanocortin receptor 3 (Homo sapiens, UniProt P41968); format: cell membranes, Membrane; details: hek293; also: in other assays of this panel Not Active means under 50% inhibition at 10 µM
Melanocortin receptor 5 = Melanocortin receptor 5 (Homo sapiens, UniProt P33032); format: cell membranes, HEK293, Membrane; details: hek293; also: in other assays of this panel Not Active means under 50% inhibition at 10 µM
[9] = biological target: T3, Neuropeptide Y receptor type 1 (Homo sapiens, UniProt P25929); format: cell membranes, Membrane; details: sk-n-mc; also: in other assays of this panel Not Active means under 50% inhibition at 10 µM
T3 sequence (P25929 whole entry): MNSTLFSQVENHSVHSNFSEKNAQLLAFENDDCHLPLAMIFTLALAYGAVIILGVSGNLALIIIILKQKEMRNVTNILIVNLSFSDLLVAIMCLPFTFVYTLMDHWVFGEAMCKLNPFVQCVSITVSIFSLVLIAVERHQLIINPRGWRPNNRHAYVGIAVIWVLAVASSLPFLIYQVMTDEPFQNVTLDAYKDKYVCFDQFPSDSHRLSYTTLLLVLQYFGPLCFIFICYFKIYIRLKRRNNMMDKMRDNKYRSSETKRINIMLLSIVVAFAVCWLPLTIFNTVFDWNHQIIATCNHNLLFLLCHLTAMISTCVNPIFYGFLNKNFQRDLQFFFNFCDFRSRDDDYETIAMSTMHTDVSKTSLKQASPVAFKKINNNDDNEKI

[10] = biological target: Delta-type opioid receptor (Homo sapiens, UniProt P41143); format: cell membranes, HEK293, Membrane; details: hek293; also: in other assays of this panel Not Active means under 50% inhibition at 10 µM
[11] = biological target: T4, 5-hydroxytryptamine receptor 1A (Rattus norvegicus, UniProt P19327); format: cell membranes, CHO-K1, Membrane; details: cho-k1; also: in other assays of this panel Not Active means under 50% inhibition at 10 µM
T4 sequence (P19327 whole entry): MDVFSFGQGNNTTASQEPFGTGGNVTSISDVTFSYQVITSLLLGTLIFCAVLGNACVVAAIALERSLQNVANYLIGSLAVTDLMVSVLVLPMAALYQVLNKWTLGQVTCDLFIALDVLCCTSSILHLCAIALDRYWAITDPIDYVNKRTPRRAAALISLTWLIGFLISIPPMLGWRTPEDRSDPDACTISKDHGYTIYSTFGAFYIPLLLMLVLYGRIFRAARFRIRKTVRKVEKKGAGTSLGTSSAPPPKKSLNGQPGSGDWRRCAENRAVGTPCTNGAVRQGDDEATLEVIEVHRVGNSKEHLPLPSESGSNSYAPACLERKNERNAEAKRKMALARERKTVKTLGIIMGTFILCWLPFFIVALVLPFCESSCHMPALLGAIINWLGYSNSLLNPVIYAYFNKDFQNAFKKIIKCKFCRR

Progesterone receptor = biological target: T5, Progesterone receptor (Bos taurus, UniProt Q690N0); experiment: DRUGMATRIX: Progesterone radioligand binding (ligand: [3H] R-5020); format: tissue-based, Uterus; details: Not Active = under 50% inhibition at 10 µM
T5 sequence (Q690N0 whole entry): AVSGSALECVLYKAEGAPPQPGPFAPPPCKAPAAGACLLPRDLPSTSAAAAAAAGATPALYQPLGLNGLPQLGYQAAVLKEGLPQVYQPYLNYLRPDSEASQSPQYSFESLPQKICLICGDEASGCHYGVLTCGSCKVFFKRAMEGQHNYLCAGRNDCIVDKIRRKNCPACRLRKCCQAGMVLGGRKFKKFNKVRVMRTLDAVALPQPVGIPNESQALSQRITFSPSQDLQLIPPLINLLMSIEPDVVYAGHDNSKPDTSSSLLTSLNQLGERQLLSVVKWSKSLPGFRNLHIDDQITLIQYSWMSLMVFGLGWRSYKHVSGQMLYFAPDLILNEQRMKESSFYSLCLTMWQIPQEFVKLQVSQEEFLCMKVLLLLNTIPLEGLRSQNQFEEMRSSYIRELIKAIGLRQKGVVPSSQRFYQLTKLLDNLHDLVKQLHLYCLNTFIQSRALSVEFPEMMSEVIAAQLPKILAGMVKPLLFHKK

Chain of Prostaglandin G/H synthase 1 (P23219 whole entry): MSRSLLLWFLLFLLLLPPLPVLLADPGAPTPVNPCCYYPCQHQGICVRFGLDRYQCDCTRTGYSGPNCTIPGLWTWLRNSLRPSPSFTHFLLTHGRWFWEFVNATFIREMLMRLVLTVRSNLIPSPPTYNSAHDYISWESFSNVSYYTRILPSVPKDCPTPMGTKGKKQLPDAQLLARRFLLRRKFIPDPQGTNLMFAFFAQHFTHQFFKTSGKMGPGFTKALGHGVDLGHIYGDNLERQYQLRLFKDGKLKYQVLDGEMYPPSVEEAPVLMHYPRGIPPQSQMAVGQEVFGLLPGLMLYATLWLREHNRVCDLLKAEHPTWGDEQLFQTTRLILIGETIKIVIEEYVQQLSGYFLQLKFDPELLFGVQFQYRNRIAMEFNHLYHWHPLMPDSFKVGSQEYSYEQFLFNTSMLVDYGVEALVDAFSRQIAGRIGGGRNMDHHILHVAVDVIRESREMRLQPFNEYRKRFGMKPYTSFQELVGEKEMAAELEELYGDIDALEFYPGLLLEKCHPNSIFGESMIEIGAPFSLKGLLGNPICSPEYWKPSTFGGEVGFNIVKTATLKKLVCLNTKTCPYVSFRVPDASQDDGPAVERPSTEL
Chain of Melanocortin receptor 3 (P41968 whole entry): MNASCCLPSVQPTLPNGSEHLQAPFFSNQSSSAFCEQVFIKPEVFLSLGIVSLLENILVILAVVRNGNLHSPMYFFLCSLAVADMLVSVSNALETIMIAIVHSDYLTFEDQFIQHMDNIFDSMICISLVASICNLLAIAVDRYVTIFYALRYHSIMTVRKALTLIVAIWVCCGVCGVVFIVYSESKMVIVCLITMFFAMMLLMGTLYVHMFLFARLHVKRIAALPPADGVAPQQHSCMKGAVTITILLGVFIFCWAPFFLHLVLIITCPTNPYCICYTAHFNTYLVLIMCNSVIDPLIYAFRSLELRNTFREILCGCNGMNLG
Chain of Beta-1 adrenergic receptor (P08588 whole entry): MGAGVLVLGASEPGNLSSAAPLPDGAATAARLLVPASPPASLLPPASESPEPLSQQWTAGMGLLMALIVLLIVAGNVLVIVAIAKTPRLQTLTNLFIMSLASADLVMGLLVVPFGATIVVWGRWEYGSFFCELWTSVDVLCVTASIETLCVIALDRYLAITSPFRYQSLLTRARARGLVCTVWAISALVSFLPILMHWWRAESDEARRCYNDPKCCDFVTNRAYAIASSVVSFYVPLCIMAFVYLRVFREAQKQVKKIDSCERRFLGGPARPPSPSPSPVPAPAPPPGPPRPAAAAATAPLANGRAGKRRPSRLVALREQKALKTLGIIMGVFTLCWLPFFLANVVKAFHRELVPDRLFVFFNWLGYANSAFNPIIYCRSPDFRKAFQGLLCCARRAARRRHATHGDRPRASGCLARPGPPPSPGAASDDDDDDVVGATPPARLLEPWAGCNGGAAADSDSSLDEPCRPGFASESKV
Chain of Delta-type opioid receptor (P41143 whole entry): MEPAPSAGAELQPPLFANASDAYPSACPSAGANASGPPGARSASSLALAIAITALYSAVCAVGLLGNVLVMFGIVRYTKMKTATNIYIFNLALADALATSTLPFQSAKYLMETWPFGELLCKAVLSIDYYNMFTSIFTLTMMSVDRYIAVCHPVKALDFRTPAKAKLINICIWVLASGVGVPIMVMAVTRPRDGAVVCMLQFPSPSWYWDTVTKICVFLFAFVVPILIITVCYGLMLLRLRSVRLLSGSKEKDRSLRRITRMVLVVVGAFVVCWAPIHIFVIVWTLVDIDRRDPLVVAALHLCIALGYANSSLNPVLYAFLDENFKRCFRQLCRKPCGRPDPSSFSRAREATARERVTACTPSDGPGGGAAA
Chain of Melanocortin receptor 5 (P33032 whole entry): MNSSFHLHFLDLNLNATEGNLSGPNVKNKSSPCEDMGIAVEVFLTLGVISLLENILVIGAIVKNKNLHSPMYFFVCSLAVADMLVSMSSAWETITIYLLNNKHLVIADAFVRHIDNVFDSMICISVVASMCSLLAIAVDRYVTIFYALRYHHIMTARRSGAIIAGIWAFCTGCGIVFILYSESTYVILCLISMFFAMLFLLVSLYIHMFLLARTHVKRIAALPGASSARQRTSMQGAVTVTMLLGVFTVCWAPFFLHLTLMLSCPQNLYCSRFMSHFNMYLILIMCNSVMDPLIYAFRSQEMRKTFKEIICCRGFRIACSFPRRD

CCC[C@@H]1C[C@@H](C(=O)N[C@@H]([C@H]2O[C@H](SC)[C@H](O)[C@@H](O)[C@H]2O)[C@@H](C)O)N(C)C1 [LINCOMYCIN]
Not Active: IC50 [1] | IC50 [2] | Ki [2] | IC50 [3] | Ki [3] | IC50 [4] | IC50 [5] | IC50 [6] | IC50 [7] | Ki [7] | IC50 [8] | Ki [8] | IC50 (Melanocortin receptor 3) | IC50 (Melanocortin receptor 5) | IC50 [9] | IC50 [10] | IC50 [11]

COS(C)(=O)=O [METHANESULFONIC ACID METHYL ESTER]
Not Active: IC50 [1] | IC50 [2] | Ki [2] | IC50 [3] | Ki [3] | IC50 [4] | IC50 [5] | IC50 [6] | IC50 [7] | Ki [7] | IC50 [8] | Ki [8] | IC50 (Melanocortin receptor 3) | IC50 (Melanocortin receptor 5) | IC50 [9] | IC50 [10] | IC50 [11]

CC(C)(C)NCC(O)c1ccc(O)c(CO)c1 (configuration not stated) [ALBUTEROL]
Not Active: IC50 [2] | Ki [2] | IC50 [3] | Ki [3] | IC50 [4] | IC50 [5] | IC50 [6] | IC50 [7] | Ki [7] | IC50 [8] | Ki [8] | IC50 (Melanocortin receptor 3) | IC50 (Melanocortin receptor 5) | IC50 [9] | IC50 [10] | IC50 (Progesterone receptor) | IC50 [11]

CC(C)(O)c1ccccc1CC[C@@H](SCC1(CC(=O)O)CC1)c1cccc(/C=C/c2ccc3ccc(Cl)cc3n2)c1 [MONTELUKAST]
Not Active: IC50 [1] | IC50 [4] | IC50 [5] | IC50 [6] | IC50 (Melanocortin receptor 3) | IC50 (Melanocortin receptor 5) | IC50 [9] | IC50 (Progesterone receptor) | IC50 [11]

COC(=O)[C@@H]1[C@H]2C[C@H]3c4[nH]c5ccccc5c4CCN3C[C@@H]2CC[C@@H]1O [YOHIMBINE]
Not Active: IC50 [1] | IC50 [2] | Ki [2] | IC50 [3] | Ki [3] | IC50 [4] | IC50 [5] | IC50 [6] | IC50 [7] | Ki [7] | IC50 [8] | Ki [8] | IC50 (Melanocortin receptor 3) | IC50 (Melanocortin receptor 5) | IC50 [9] | IC50 [10] | IC50 (Progesterone receptor)
